Experimental data taken from patent publication US6489098B1, “Means and methods for monitoring nucleoside reverse transcriptase inhibitor antiretroviral therapy and guiding therapeutic decisions in the treatment of HIV/AIDS” (ViroLogic, Inc., priority 1998, dated 2002).
“Also recorded” adds a separate entry of the source.

Columns and labels:
[1] = system: HIV-1 RT mutant resistance test vector M41L-A62V-T69SSA-T215Y-RTV; assay: Phenotypic susceptibility assay, site directed RTV M41L+A62V+T69SSA+T215Y; format: cell-based; details: RTV with M41L+A62V+T69SSA+T215Y; addition of A62V to M41L+T69SSA+T215Y
Method: (§1) Resistance tests were carried out with resistance test vectors using two host cell types. Resistance test vector viral particles were produced by a first host cell (the resistance test vector host cell) that was prepared by transfecting a packaging host cell with the resistance test vector and the packaging expression vector. The resistance test vector viral particles were then used to infect a second host cell (the target host cell) in which the expression of the indicator gene is measured.
(§2) The resistance test vectors containing a functional luciferase gene cassette were constructed and host cells were transfected with the resistance test vector DNA. The resistant test vectors contained patient-derived reverse transcriptase and protease sequences that were either susceptible or resistant to the antiretroviral agents, such as nucleoside reverse transcriptase inhibitors, non-nucleoside reverse transcriptase inhibitors and protease inhibitors. The resistance test vector viral particles produced by transfecting the resistance test vector DNA into host cells, either in the presence or absence of protease inhibitors, were used to infect target host cells grown either in the absence of NRTI or NNRTI or In the presence of increasing concentrations of the drug. The amount of luciferase activIty produced in infected target host cells in the presence of drug was compared to the amount of luciferase produced in infected target host cells in the absence of drug. Drug resistance was measured as the amount of drug required to inhibit by 50% the luciferase activity detected in the absence of drug (Inhibitory concentration 50%, IC50). The IC50 values were determined by plotting percent drug inhibition vs. log 10 drug concentration.
Host cells were seeded in 10-cm-diameter dishes and were transfected several days after plating with resistance test vector plasmid DNA and the envelope expression vector. Transfections were performed using a calcium-phosphate precipitation procedure. The cell culture media containing the DNA precipitate was replaced with fresh medium, from one to 24 hours, after transfection. Cell culture media containing resistance test vector viral particles was harvested one to four days after transfection and was passed through a […] filter before being stored at −80° C. HIV capsid protein (p24) levels in the harvested cell culture media were determined by an EIA method as described by the manufacturer (SIAC; Frederick, Md.). Before infection, target cells (293 and 293/T) were plated in cell culture media. Control infections were performed using cell culture media from mock transfections (no DNA) or transfections containing the resistance test vector plasmid DNA without the envelope expression plasmid. One to three or more days after infectIon the media was removed and cell lysis buffer (Promega) was added to each well. […] The inhibitory effect of the drug was determined using the following equation:
(§3) % luciferase inhibition=1−(RLUluc[drug]÷RLUluc)×100
(§4) where RLUluc [drug] is the relative light unit of luciferase activity in infected cells in the presence of drug and RLUluc is the Relative Light Unit of luciferase activity in infected cells in the absence of drug. IC50 values were obtained from the sigmoidal curves that were generated from the data by plotting the percent inhibition of luciferase activity vs. the log 10 drug concentration.
Mutations may be incorporated alone and/or in combination with other known drug resistance mutations that are thought to modulate the susceptibility of HIV to a certain drug or class of drugs. Mutations are introduced into the resistance test vector through any of the widely known methods for site-directed mutagenesis. In one embodiment of this invention the mega-primer PCR method for site-directed mutagenesis is used.

[2] = system: HIV-1 RT mutant resistance test vector 41 + 215 (M41L and T215Y); assay: Phenotypic susceptibility assay, site directed RTV 41 + 215; format: cell-based; details: RTV with 41 + 215; 4 replicates
Method: as §1, §2
(§5) Host cells were seeded in 10-cm-diameter dishes and were transfected several days after plating with resistance test vector plasmid DNA and the envelope expression vector. Transfections were performed using a calcium-phosphate precipitation procedure. The cell culture media containing the DNA precipitate was replaced with fresh medium, from one to 24 hours, after transfection. Cell culture media containing resistance test vector viral particles was harvested one to four days after transfection and was passed through a […] filter before being stored at −80° C. HIV capsid protein (p24) levels in the harvested cell culture media were determined by an EIA method as described by the manufacturer (SIAC; Frederick, Md.). Before infection, target cells (293 and 293/T) were plated in cell culture media. Control infections were performed using cell culture media from mock transfections (no DNA) or transfections containing the resistance test vector plasmid DNA without the envelope expression plasmid. One to three or more days after infectIon the media was removed and cell lysis buffer (Promega) was added to each well. Cell lysates were assayed for luciferase activity (FIG. 3). The inhibitory effect of the drug was determined using the following equation:
as §3
as §4, with “concentration. The drug inhibition curves are shown in (FIG. 3).” for “concentration.”
(§6) Genotypic changes that are observed to correlate with changes in phenotypic patterns of drug susceptibility are evaluated by construction of resistance test vectors containing the specific mutation on a defined, wild-type (drug susceptible) genetic background. Mutations may be incorporated alone and/or in combination with other known drug resistance mutations that are thought to modulate the susceptibility of HIV to a certain drug or class of drugs. […]

[3] = system: HIV-1 RT mutant resistance test vector 41 + 69 + 184 + 215; assay: Phenotypic susceptibility assay, site directed RTV 41 + 69 + 184 + 215; format: cell-based; details: RTV with 41 + 69 + 184 + 215; 2 replicates
Method: as §1, §2, §5, §3
as §4, with “concentration. The drug inhibition curves are shown in (FIG. 3).” for “concentration.”
as §6

[4] = system: HIV with RT Met184→Val mutation; details: Met184→Val (M184V); cited from earlier work
[5] = system: HIV-1 RT mutant resistance test vector 41 + 62 + 69 + 75S + 210 + 215; assay: Phenotypic susceptibility assay, site directed RTV 41 + 62 + 69 + 75S + 210 + 215; format: cell-based; details: RTV with 41 + 62 + 69 + 75S + 210 + 215; 1 replicate
Method: as §1, §2, §5, §3
as §4, with “concentration. The drug inhibition curves are shown in (FIG. 3).” for “concentration.”
as §6

[6] = system: HIV with RT Val75→Thr mutation; details: cited from earlier work

Compound | effect on susceptibility (words) [1] | Average fold reduction in susceptibility [2] | Average fold reduction in susceptibility [3] | fold increase in IC50 / reduction in susceptibility [4] | Average fold reduction in susceptibility [5] | fold increase in IC50 [6] | susceptibility [6]
Nc1nc(NC2CC2)c2ncn([C@H]3C=C[C@@H](CO)C3)c2n1 [ABC, abacavir] | no effect on susceptibility | 1.68 fold | 11.56 fold | 2-5 fold | 14.21 fold |  | 
Cc1cn([C@H]2C[C@H](N=[N+]=[N-])[C@@H](CO)O2)c(=O)[nH]c1=O [AZT, zidovudine] | reduced AZT susceptibility more than the combination of M41L and T215Y mutations alone; also recorded: further reduction in susceptibility | 17.82 fold | 5.87 fold |  | >1000 fold |  | 
Cc1cn([C@H]2C=C[C@@H](CO)O2)c(=O)[nH]c1=O [d4T, stavudine] | did reduce d4T susceptibility more than the T69SSA mutation alone; also recorded: further reduction in susceptibility | 1.61 fold | 2.32 fold |  | 14.13 fold | seven-fold | 
Nc1ccn([C@H]2CC[C@@H](CO)O2)c(=O)n1 [ddC, zalcitabine] | no effect on susceptibility | 1.21 fold | 3.48 fold | four-fold to eight-fold | 2.58 fold |  | reduced susceptibility to both ddI and ddC
O=c1[nH]cnc2c1ncn2[C@H]1CC[C@@H](CO)O1 [ddI, didanosine] | further reduction in susceptibility | 1.09 fold | 2.28 fold | four-fold to eight-fold | 5.12 fold |  | reduced susceptibility to both ddI and ddC
